Columns and labels:
[1] = system: HT-29; assay: Cytotoxicity against human HT-29 cells; type: functional, cell-based
[2] = system: A549; assay: Cytotoxicity against human A549 cells; type: functional, cell-based

SMILES | IC50 [1] [nM] | IC50 [2] [nM]
CC(C)[C@]12O[C@H]1[C@@H]1O[C@@]13[C@H]1CCC4=C(COC4=O)[C@@H]1C[C@@H]1O[C@@]13[C@]21CO1 | 0.65 | 53
Cc1occ2c1CC[C@H]1[C@H]2C[C@@H]2O[C@]23[C@]12O[C@H]2[C@@H]1O[C@]1(C(C)C)[C@@]3(C)O | > 13400 | > 13400
Cc1occ2c1CC[C@H]1[C@H]2C[C@@H]2O[C@@]23[C@H](O)[C@@]2(C(C)C)O[C@H]2[C@@H]2O[C@@]123 | 2010 | 7850
CCc1c2c(nc3ccc(O)cc13)-c1cc3c(c(=O)n1C2)COC(=O)[C@]3(O)CC [7-ETHYL-10-HYDROXYCAMPTOTHECIN] | 5.9 | 47
CC(=O)O[C@@]12CO[C@@H]1C[C@H](O)[C@@]1(C)C(=O)[C@H](O)C3=C(C)[C@@H](OC(=O)[C@H](O)[C@@H](NC(=O)OC(C)(C)C)c4ccccc4)C[C@@](O)([C@@H](OC(=O)c4ccccc4)[C@H]21)C3(C)C [DOCETAXEL] | 0.75 | 1.2
CCc1occ2c1CC[C@H]1[C@H]2C[C@@H]2O[C@@]23[C@H](O)[C@@]2(C(C)C)O[C@H]2[C@@H]2O[C@@]123 | > 13400 | > 13400
CC(C)[C@]12O[C@H]1[C@@H]1O[C@]13[C@]1(O[C@H]1C[C@H]1C4=C(CC[C@@]13C)C(=O)OC4)[C@@H]2O [TRIPTOLIDE] | 2.1 | 19
CC(C)[C@]12O[C@H]1[C@@H]1O[C@@]13[C@H]1CCC4=C(COC4=O)[C@@H]1C[C@@H]1O[C@@]13[C@@]2(C)O | 22 | 350
CC(C)[C@]12O[C@H]1[C@@H]1O[C@@]13[C@H]1CCC4=C(COC4=O)[C@@H]1C[C@@H]1O[C@@]13[C@H]2O | 78 | 1690
CC[C@@]1(O)[C@]23O[C@H]2C[C@H]2C4=C(CC[C@@H]2[C@@]32O[C@H]2[C@@H]2O[C@@]21C(C)C)C(=O)OC4 | 390 | 2830
Cc1occ2c1CC[C@H]1[C@H]2C[C@@H]2O[C@]23[C@]12O[C@H]2[C@@H]1O[C@]1(C(C)C)[C@]3(C)O | > 13400 | > 13400
CC(C)[C@]12O[C@H]1[C@@H]1O[C@@]13[C@@]1(C)CCC4=C(COC4=O)[C@@H]1C[C@@H]1O[C@@]13C2=O [TRIPTONIDE] | 8.4 | 53

Reference: ChEMBL document CHEMBL1770149, “Semisynthesis of triptolide analogues: effect of γ-lactone and C-14 substituents on cytotoxic activities” (Bioorg Med Chem Lett, 2011)
